Patent publication US7098336B2, “FXR NR1H4 nuclear receptor binding compounds” (Phenex Pharmaceuticals AG, priority 2001, dated 2006)
Read-outs that look alike come from different tables or passages of the source.

Columns and labels:
[1] = molecular target: T1, human FXR alpha (NR1H4) (Homo sapiens, UniProt Q96RI1); assay: In vitro LANCE TR-FRET screening for FXR binding to coactivator TIF2; type: biochemical; parameters: EC50 AVG; other: relative to CDCA control agonist; fused on or other part: GST at the N-terminus (pDest15); settings: for Emax: read-out: EFFIC AVG (average efficacy, % activity relative to CDCA control agonist)
T1 sequence (Q96RI1 1-472 isoform Q96RI1-2): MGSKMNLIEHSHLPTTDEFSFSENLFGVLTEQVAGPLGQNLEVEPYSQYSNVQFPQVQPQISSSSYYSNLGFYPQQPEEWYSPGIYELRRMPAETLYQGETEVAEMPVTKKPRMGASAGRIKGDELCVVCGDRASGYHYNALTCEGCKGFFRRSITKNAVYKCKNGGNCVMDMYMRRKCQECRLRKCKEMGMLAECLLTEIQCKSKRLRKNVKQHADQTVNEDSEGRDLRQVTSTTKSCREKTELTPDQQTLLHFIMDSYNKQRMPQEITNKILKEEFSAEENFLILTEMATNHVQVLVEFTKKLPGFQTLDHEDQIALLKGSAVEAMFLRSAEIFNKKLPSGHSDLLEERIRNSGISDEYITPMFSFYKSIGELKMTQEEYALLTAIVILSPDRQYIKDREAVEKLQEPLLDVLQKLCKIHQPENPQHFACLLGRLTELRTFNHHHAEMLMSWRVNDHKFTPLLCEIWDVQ
Source text: For screening purposes a fragment of the open reading frame of human FXR alpha (NR1H4-(Acc. No: AF384555)) encoding aminoacids 187–472 was amplified by standard RT PCR procedures (see figures; SEQ ID NO. 1 and 2). Starting material was total RNA derived from human liver. The resulting cDNA obtained after reverse transcription was subsequently cloned using the Gateway™ recombination technology (Invitrogen, USA) into the expression plasmid pDest15 (Invitrogen, USA). This construct was used to express a recombinant GST-FXR fusion protein in E. coli (BL21 strain). A pDEST 17 derivative clone harboring an additional sequence encoding amino acids 548–878 of human TIF2 (Acc. No: XM—011633 RefSeq) was constructed using Gateway™ recombination technology (Invitrogen, USA) in order to obtain a construct which was used to express recombinant His-tagged TIF2 fragment could be expressed in E. coli. For E. coli expression of both constructs, plasmid DNA was transformed into chemically competent E. coli BL21 (Invitrogen, USA) and cells were grown to an OD600 of 0.4–0.7 before expression was induced by addition of 0.5 mM IPTG according instructions of the manufacturer (Invitrogen). After induction for 8 hours at 30° C. cells were harvested by centrifugation for 10 minutes at 5000×g. Fusion proteins were affinity purified using Glutathion sepharose (Pharmacia) or Ni-NTA Agarose (QIAGEN) according to the instructions of the respective manufacturer. Recombinant proteins were dialyzed against 20 mM Tris/HCL pH 7.9; 60 mM KCl; 5 mM MgCl2; 1 mM DTT, 0.2 mM PMSF; 10% glycerol. The TIF2 fragment was subsequently biotinylated by addition of 40–120 μl of a Biotinamidocaproate N-Hydroxysuccinimide-ester (Sigma) solution (20 mg/ml in DMSO). Overhead rotating samples were incubated for 2 hours at room temperature. Unincorporated label was then separated using G25 Gel filtration chromatography (Pharmacia Biotech, Sweden). Protein containing fractions from the column were pooled and tested for activity in the assay as described below.
(§1) For screening of compound libraries as provided for by the methods shown below in the examples for substances which influence the FXR/Tif 2 interaction, the Perkin Elmer LANCE technology was applied. This method relies on the binding dependent energy transfer from a donor to an acceptor fluorophore attached to the binding partners of interest. For ease of handling and reduction of background from compound fluorescence LANCE technology makes use of generic fluorophore labels and time resoved detection (for detailed description see Hemmilä I, Blomberg K and Hurskainen P, Time-resolved resonance energy transfer (TR-FRET) principle in LANCE, Abstract of Papers Presented at the 3 rd Annual Conference of the Society for Biomolecular Screening, September, California (1997).
For screening, 20–200 ng of biotinylated Tif 2 fragment and 10–200 ng of GST-FXR fragment were combined with 0.5–2 nM LANCE Eu-(W1024) labelled anti-GST antibody (Perkin Elmer) and 0.5–2 μg of Highly fluorescent APC-labelled streptavidin (Perkin Elmer) in the presence of 50 μM of individual compounds to be screened in a total volume of 25 μl of 20 mM Tris/HCl pH 7.9; 60 mM KCl; 5 mM MgCl2; 160 ng/μl BSA. DMSO content of the samples was kept below 4%. Samples were incubated for a minimum of 60 minutes in the dark at room temperature in FIA-Plates black 384 well med. binding (Greiner).
(§2) The LANCE signal was detected by a Perkin Elmer VICTOR2V™ Multilabel Counter applying the detection parameters listed in Table 1 below. The results were visualized by plotting the ratio between the emitted light at 665 nm and at 615 nm. For every batch of recombinant proteins amount of proteins and labeling reagents giving the most sensitive detection of hits was determined individually by analysis of dose response curves for chenodeoxycholic acid.

[2] = molecular target: T2, full length human FXR (Homo sapiens, UniProt Q96RI1); assay: Cellular gene reporter assay in stable HEK293-FXR reporter cell line (luciferase); type: cell-based; settings: HEK293-FXR reporter cells, 16 hours incubation, FIG. 3
T2 construct: expressed in transfected cells; host or cells: HEK293, stably transfected with pTRexDest30-hFXR, pTRexDest30-hRXR and pGL2promoter-FXRRE
T2 sequence (Q96RI1 1-472 isoform Q96RI1-2): T1 sequence (Q96RI1 1-472 isoform Q96RI1-2)
T2 sequence (P19793 1-462 partner): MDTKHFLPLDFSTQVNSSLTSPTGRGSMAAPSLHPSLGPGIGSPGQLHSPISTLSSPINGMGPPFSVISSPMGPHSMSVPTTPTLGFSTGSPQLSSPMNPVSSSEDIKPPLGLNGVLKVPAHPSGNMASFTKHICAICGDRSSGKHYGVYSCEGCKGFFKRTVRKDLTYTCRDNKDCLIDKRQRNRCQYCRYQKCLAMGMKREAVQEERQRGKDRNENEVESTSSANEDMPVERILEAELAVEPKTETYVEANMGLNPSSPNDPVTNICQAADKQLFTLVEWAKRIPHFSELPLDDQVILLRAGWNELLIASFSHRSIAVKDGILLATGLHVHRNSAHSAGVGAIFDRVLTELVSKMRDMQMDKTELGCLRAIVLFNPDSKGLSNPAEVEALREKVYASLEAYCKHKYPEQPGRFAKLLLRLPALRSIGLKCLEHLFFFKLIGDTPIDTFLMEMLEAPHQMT
Source text: This example illustrates that a compound according to the invention can mediate transactivation of FXR mediated transcription in a HEK293 reporter cell line. Experiments shown were done with MOLSTRUCTURE LN 6691 (see structural formula below).
Stable HEK293-FXR reporter cell lines were generated by stably transfecting with the pTRexDest30 (Invitrogen) derivatives pTRexDest30-hFXR, pTRexDest30-hRXR and the pGL2promoter (Promega) derivative pGL2promoter-FXRRE. The full length human FXR (accession U68233) and the full length human RXRα (accession P19793) were cloned into the pTRexDest30 applying the manufacturer protocols for the Gateway™ system (Invitrogen).
The FXR response elements were (upper case and underlined) 5′-cccaGGGTGAaTAACCTcggggctctgtccctccaatcccaGGGTGAaTAACCTcggg 3′ (SEQ ID NO. 5) was created from the human IBAB-P promoter (Grober et al 1999, JBC 274, pp. 29749–29754) and integrated into the reporter plasmid pGL2promoter (Promega) according to standard methods known to those skilled in the art. […] Luciferase reporter activity were determined in triplicates from extracts of cells after incubating cells in culture medium (DMEM [Gibco-BRL]+10% FCS [PAA laboratories]) for 16 hours (5% CO2, 37° C.) containing 0.5% DMSO (control) or 0.5% DMSO with increasing concentrations of LN6691 (FIG. 3).

[3] = molecular target: T1, human FXR alpha (NR1H4); assay: In vitro LANCE TR-FRET screening for FXR binding to coactivator TIF2; type: biochemical
Source text: For screening purposes a fragment of the open reading frame of human FXR alpha (NR1H4-(Acc. No: AF384555)) encoding aminoacids 187–472 was amplified by standard RT PCR procedures (see figures; SEQ ID NO. 1 and 2). Starting material was total RNA derived from human liver. The resulting cDNA obtained after reverse transcription was subsequently cloned using the Gateway™ recombination technology (Invitrogen, USA) into the expression plasmid pDest15 (Invitrogen, USA). This construct was used to express a recombinant GST-FXR fusion protein in E. coli (BL21 strain). A pDEST 17 derivative clone harboring an additional sequence encoding amino acids 548–878 of human TIF2 (Acc. No: XM—011633 RefSeq) was constructed using Gateway™ recombination technology (Invitrogen, USA) in order to obtain a construct which was used to express recombinant His-tagged TIF2 fragment could be expressed in E. coli. […]
as §1, with “This method relies on the binding dependent energy transfer from a donor to an acceptor fluorophore attached to the binding partners of interest.” left out, “(1997). […]” for “(1997).”
as §2, with “The results were visualized by plotting the ratio between the emitted light at 665 nm and at 615 nm.” left out

[4] = established according to Example 1 (FRET), unit inferred, b76 prints 0.16 μM for the same value, read-out: EC50 AVG

| Structure (SMILES) | EC50 [1, 4] [nM] | Emax [1] [%] | active as agonists of the NR1H4 human nuclear receptor [3] | further results |
| --- | --- | --- | --- | --- |
| COc1ccccc1-c1cc(-c2cc(C)ccc2O)nc(NCC2CCC(C(=O)O)CC2)n1 (stereo not shown) [LN0000002683] | 1090 | 134 |  |  |
| COc1ccccc1-c1cc(-c2ccccc2O)nc(NCC2CCC(C(=O)O)CC2)n1 (stereo not shown) [LN0000006691] |  | 125 |  | EC50 ([1]; read-out: EC50 at FXR (half-maximal effective concentration)): 160 nM; relative efficacy compared to GW4064 as control compound [2]: about 110% |
| COc1ccccc1-c1cc(-c2ccccc2O)nc(NC[C@H]2CC[C@H](C(=O)O)CC2)n1 [LN0000006691] |  |  |  | EC50 [2]: 1300 nM |
| O=C(O)C1CCC(CNc2nc(-c3cccs3)cc(-c3ccccc3O)n2)CC1 (stereo not shown) [LN0000006692] | 1660 | 111 |  |  |
| O=C(O)C1CCC(CNc2nc(-c3ccccc3O)cc(-c3ccccc3F)n2)CC1 (stereo not shown) [LN0000007265] | 530 | 91 |  |  |
| O=C(O)C1CCC(CNc2nc(-c3ccccc3O)cc(-c3ccccc3F)n2)CC1 (stereo not shown) [formula (5)] |  |  | active as agonists |  |
| COc1ccccc1-c1cc(-c2cc(C)ccc2O)nc(NC[C@H]2CC[C@H](C(=O)O)CC2)n1 [formula (6)] |  |  | active as agonists |  |
| O=C(O)[C@H]1CC[C@H](CNc2nc(-c3cccs3)cc(-c3ccccc3O)n2)CC1 [formula (7)] |  |  | active as agonists |  |
